We go through two compounds from patent US20210230131A1, “POLYAMINO BIARYL COMPOUNDS AND THEIR USE” (INSERM (INSTITUT NATIONAL DE LA SANTÉ ET DE LA RECHERCHE …, priority 2018, published 2021).

One assay concerns Aβ1-42 peptide secretion. The assay is described as follows: Quantification of secreted Aβ1-42 by ELISA in SY5Y-APP695WT cells. Type of assay: cell-based. Conditions: Homo sapiens; concentration inhibiting 50% of Aβ1-42 peptide secretion in SY5Y cells; 24 h treatment; mean ± SD of at least two experiments in triplicate. Here is the method:
(§1) Cell culture and treatment. The human neuroblastoma cell line […] was maintained in Dulbecco's modified Eagle medium (DMEM, high glucose, pyruvate-GIBCO by Life Technologies) supplemented with 10% foetal bovine serum, 2 mM L-glutamine, 1 mM non-essential amino acids and penicillin/streptomycin (GIBCO by Life Technologies) at 37° C. in a 5% CO2 humidified incubator. […] cells were maintained in 75 cm^2 culture flasks (Falcon) with supplemented DMEM medium until they reached 80% of confluence 24 h before treatment. For compounds treatment, a 10 mM stock solution was diluted in freshly supplemented DMEM medium to obtain the precise final concentration of drug. Bafilomycin A1 (BafA1), the vacuolar […] type H+ ATPase inhibitor, was purchased from Merck Millipore and was used at a final dilution of 100 nM. For drug treatment, cells were plated at a rate of 5·10^5 cells per well into 12-well plates (Falcon) and cultured with 1 mL supplemented DMEM cell medium for 24 h before drug exposure. The following day, cell medium was replaced with fresh medium containing drugs diluted at the indicated concentrations. Cells were treated for 24 h. At the end of treatments, the cell medium was collected and kept at -80° C. until use for dosage. Then, cells were rinsed once with PBS and extracted in 100 μL of Laemmli buffer (10 mM Tris, 20% glycerol and 2% Sodium dodecyl sulfate) using a cell-scraper. The cell lysate was further sonicated (30 pulses of 0.5 s, 60 Hz) for 5 min. Total protein concentration was determined using the Pierce BCA Protein Assay Kit (Thermo scientific) according to the manufacturer's instructions. Samples were stored at -80° C. until analysis. Quantification of secreted Aβ1-40/1-42 and sAPPα/sAPPβ. Conditioned media of […] collected at the end of treatments were centrifuged at 1000 g for 5 min to eliminate cells debris. Aβ1-40 and Aβ1-42 peptide concentrations in […] were determined using amyloid-beta 40 and 42 Human ELISA kits (Invitrogen) according to the manufacturer's instructions after 1:10 and 1:2 dilutions of supernatants in ELISA buffer, respectively. sAPPα and sAPPβ concentrations in ng/mL were determined using the sAPPα/sAPPβ kit (Meso Scale Diagnostics, MSD®) according to the manufacturer's instructions. Compounds of the invention (compounds 24-37, 41, 44 and 51-58) were evaluated for their ability to modulate APP processing on SY5Y human neuroblastoma cell line stably expressing the neuronal isoform of human wild-type APP695 (SYSY-APPwt). Aβ levels (Aβ1-40 and Aβ1-42) after treatment with reference and tested compounds were measured by ELISA (Table 2). […] APP carboxy-terminal fragments (αCTFs and AICD) were measured by Western blot and quantified. The effect of reference and tested compounds on αCTFs and AICD are expressed as the intensity of corresponding western-blot bands resulting from the secretase cleavages.

In a further assay the test system is Aβ1-40 peptide secretion. The assay is described as follows: Quantification of secreted Aβ1-40 by ELISA in SY5Y-APP695WT cells. Type of assay: cell-based. Conditions: Homo sapiens; concentration inhibiting 50% of Aβ1-40 peptide secretion in SY5Y cells; 24 h treatment; mean ± SD of at least two experiments in triplicate. The method, then:
as §1

Turning to `CN(C)Cc1ccccc1-c1ccc(NCCCN2CCCCC2)c(OCCC2CCCCC2)c1` [Compound 31, 3-(2-cyclohexylethoxy)-2′-((dimethylamino)methyl)-N-(3-(piperidin-1-yl)propyl)-[1,1′-biphenyl]-4-amine], the figures for the IC50 with Aβ1-42 peptide secretion and with Aβ1-40 peptide secretion were 2.8 ± 0.1 µM and 2.1 ± 0.3 µM, respectively.

Take `CN(C)Cc1ccccc1-c1ccc(NCCCN2CCCCC2)c(OCCN2CCCCC2)c1` [Compound 30, 4-(2-[(Dimethylamino)methyl]phenyl)-2-[2-(piperidin-1-yl)ethoxy]-N-[3-(piperidin-1-yl)propyl]aniline]: the figures for the IC50 with Aβ1-42 peptide secretion and in the assay with Aβ1-40 peptide secretion were 3.4 ± 1.9 µM and 2.8 ± 1.2 µM, respectively.
